In data set [1] the test system is PSA. As to the kind of experiment: Time required for PSA to hydrolyze 50% (t1/2). The format is ADME. The following applies: PSA (enzyme).
For data set [2], the system named is DuPro. As to the kind of experiment: Concentration required to kill 50% of tumor cells in PSA nonproducing DuPRO human prostate cancer cell line. The data set is classed as functional, cell-based.
Data set [3] deals with LNCaP. Kind of data set: Percentage PSA reduction relative to vehicle control following intraperitoneal injection of conjugate dose for 5 consecutive days to nude mice bearing LNCaP tumor xenografts. The format is functional, Homo sapiens.
Data set [4] deals with LNCaP. As to the kind of experiment: Concentration required to kill 50% of tumor cells in PSA producing LNCaP human prostate cancer cell line. The data set is classed as functional, cell-based.
Data set [5] relates to Mus musculus. As to the kind of experiment: Maximum nonlethal drug dose which could be administered (ip) to non tumor bearing nude mice for 5 consecutive days. The format is functional.
The test system of data set [6] is Mus musculus. Kind of data set: Percentage weight reduction relative to vehicle control following intraperitoneal (ip) injection of conjugate dose for 5 consecutive days to nude mice bearing LNCaP tumor xenografts( 21.7 umol/kg dose).
The test system of data set [7] is Mus musculus. As to the kind of experiment: Percentage weight reduction relative to vehicle control following intraperitoneal (ip) injection of conjugate dose for 5 consecutive days to nude mice bearing LNCaP tumor xenografts(18.9 umol/kg dose). The format is functional.
For data set [8], the system named is Mus musculus. Kind of data set: Percentage weight reduction relative to vehicle control following intraperitoneal (ip) injection of conjugate dose for 5 consecutive days to nude mice bearing LNCaP tumor xenografts( 29.0 umol/kg dose). The data set is classed as functional.

SMILES strings stand for the structures. Where a SMILES comes first, the peptide text is derived from it. The star is where a group is joined. X1 = COc1cccc2c1C(=O)c1c(O)c3c(c(O)c1C2=O)C[C@@](O)(C(=O)CO)C[C@@H]3OC1CC(N*)C(O)C(C)O1 A value given as a limit tells only on which side of the number the result lay.

Turning to `COc1cccc2c1C(=O)c1c(O)c3c(c(O)c1C2=O)C[C@@](O)(C(=O)CO)C[C@@H]3OC1CC(NC(=O)[C@H](CC(C)C)NC(=O)[C@H](CO)NC(=O)[C@@H](CCC(N)=O)NC(=O)[C@@H](NC(=O)[C@H](CO)NC(=O)[C@H](C)NC(=O)C2CC(O)CN2C(=O)CCC(=O)O)C2CCCCC2)C(O)C(C)O1` (stereo partly drawn), the half-life in data set [1] was 0.917 h. Also, the EC50 was 100 µM in data set [2] and 5.7 µM in data set [4]. The Reduction is recorded as 94% in data set [3] and 72% in data set [6]. In data set [5], the MTD came to 28.9 µM/kg.
Regarding `COc1cccc2c1C(=O)c1c(O)c3c(c(O)c1C2=O)C[C@@](O)(C(=O)CO)C[C@@H]3OC1CC(NC(=O)[C@H](CC(C)C)NC(=O)[C@H](CO)NC(=O)[C@@H](CCC(N)=O)NC(=O)[C@H](Cc2ccc(O)cc2)NC(=O)[C@H](CO)NC(=O)[C@H](C)NC(=O)[C@H](CCCN)NC(C)=O)C(O)C(C)O1` (stereo partly drawn), the figures for the Reduction in data set [7] and in data set [3] were 26% and 22%, respectively. The compound also gave a half-life in data set [1] of more than 20 h. In addition, the figures for the EC50 in data set [2] and in data set [4] were more than 100 µM and 85 µM, respectively. Also, the MTD in data set [5] was more than 45.3 µM/kg.
`COc1cccc2c1C(=O)c1c(O)c3c(c(O)c1C2=O)C[C@@](O)(C(=O)CO)C[C@@H]3OC1CC(NC(=O)[C@H](CC(C)C)NC(=O)[C@H](CO)NC(=O)[C@H](CO)NC(=O)[C@H](CO)NC(=O)[C@H](CCC(N)=O)NC(=O)[C@H](Cc2ccc(O)cc2)NC(=O)[C@H](CCCCN)NC(C)=O)C(O)C(C)O1` (stereo partly drawn) (Ac-KYQSSSL-X1) yielded a half-life in data set [1] of 1 h. Also, the results for the EC50 in data set [2] and in data set [4] were more than 100 µM and 6.9 µM, respectively. Moreover, the Reduction is 90% in data set [3] and 70% in data set [8]. In data set [5], this compound returned an MTD of 32.6 µM/kg.
